These results are taken from US10039282B2, “Six-membered C—N-bonded aryl sulphide and aryl sulphoxide derivatives as pesticides” (BAYER CROPSCIENCE AKTIENGESELLSCHAFT, priority 2013, dated 2018).

The subject of one series is Tetranychus urticae. In words: Tetranychus urticae spray test, OP-resistant (bean leaf discs). The series is classed as in vivo. To be noted: 500 g/ha, after 6 days. The method, then: 4. Tetranychus urticae—Spray Test, OP-Resistant
Solvent: 78.0 parts by weight of acetone
• 1.5 parts by weight of dimethylformamide Emulsifier: alkylaryl polyglycol ether
To produce further test concentrations, the preparation is diluted with emulsifier-containing water.
After 6 days, the efficacy in % is determined. 100% means that all the spider mites have been killed; 0% means that none of the spider mites have been killed.

Series [1] is described as follows: log P by reversed-phase HPLC analogously to OECD Guideline 117. The class given is physicochemical. To be noted: for logP (HCOOH): pH 2.7; for logP (neutral): pH 7.8. The method, then:
The log P values were determined analogously to OECD Guideline 117 (EC Directive 92/69/EEC) by HPLC (high-performance liquid chromatography) using reversed-phase columns (C 18), by the following methods:
[a] The LC-MS determination in the acidic range is effected at pH 2.7 with 0.1% aqueous formic acid and acetonitrile (contains 0.1% formic acid) as eluents; linear gradient from 10% acetonitrile to 95% acetonitrile. log P^[…] is also referred to as log P(HCOOH). [b] LC-MS determination in the neutral range is effected at pH 7.8 with 0.001 molar aqueous ammonium hydrogencarbonate solution and acetonitrile as eluents; linear gradient from 10% acetonitrile to 95% acetonitrile. log P^[…] is also referred to as log P(neutral).
Calibration is effected with solutions of a homologous series of unbranched alkan-2-ones (having 3 to 16 carbon atoms) with known log P values (log P values determined on the basis of the retention times by linear interpolation between two successive alkanones).

The mark [2] stands for this setting: reversed-phase C18 HPLC column, acidic range, pH 2.7, 0.1% aqueous formic acid/acetonitrile, read-out: logP (HCOOH).
[3] abbreviates: reversed-phase C18 HPLC column, neutral range, pH 7.8, 0.001 molar aqueous ammonium hydrogencarbonate/acetonitrile, read-out: logP (neutral).
[4] abbreviates: acidic range, pH 2.7, 0.1% aqueous formic acid/acetonitrile, read-out: logP (HCOOH).

Read-outs that look alike come from different tables or passages of the source.

On to `Cc1cc(F)c(-n2cnc(C3CC3)cc2=O)cc1[S+]([O-])CC(F)(F)F` (racemic) [Example 7], for which, in the series with Tetranychus urticae, the “efficacy (spider mites killed)” value worked out at 100%.

For `CCc1cc(=O)n(-c2cc([S+]([O-])CC(F)(F)F)c(C)cc2F)cn1` (racemic) [Example 10], the “efficacy (spider mites killed)” value in the series on Tetranychus urticae worked out at 100%.

Consider `Cc1cc(C)c([S+]([O-])CC(F)(F)F)cc1-n1c(C)nc(C(F)(F)F)cc1=O` (racemic) [Example 14], for which the “efficacy (spider mites killed)” value in the series with Tetranychus urticae was found to be 100%.

On to `CCc1cc(=O)n(-c2ccc(C)c([S+]([O-])CC(F)(F)F)c2)cn1` (racemic) [Example 17], for which the “efficacy (spider mites killed)” value in the series with Tetranychus urticae was found to be 100%.

Take `Cc1cc(F)c(-n2c(C)nc(C(F)(F)F)cc2=O)cc1[S+]([O-])CC(F)(F)F` (racemic) [Example 19]: the “efficacy (spider mites killed)” value in the series on Tetranychus urticae worked out at 100%.

Consider `CCc1cc(=O)n(-c2cc([S+]([O-])CC(F)(F)F)c(C)cc2C)cn1` (racemic) [Example 24], for which, in the series with Tetranychus urticae, the “efficacy (spider mites killed)” value is 90%.

Regarding `Cc1ccc(-n2cnccc2=O)cc1[S+]([O-])CC(F)(F)F` (racemic) [Example 28], the “efficacy (spider mites killed)” value in the series with Tetranychus urticae worked out at 90%.

On to `O=c1cc(C(F)(F)F)ncn1-c1cc([S+]([O-])CC(F)(F)F)c(Cl)cc1F` (racemic) [Example 29], for which the “efficacy (spider mites killed)” value with Tetranychus urticae is 100%.

For `Cc1cc(C)c([S+]([O-])CC(F)(F)F)cc1-n1cnc(C2CC2)cc1=O` (racemic) [Example 35], the “efficacy (spider mites killed)” value with Tetranychus urticae amounted to 90%.

For `Cc1cc(C)c([S+]([O-])CC(F)(F)F)cc1-n1cnc(C)c(C)c1=O` (racemic) [Example 48], in the series with Tetranychus urticae, the “efficacy (spider mites killed)” value is listed as 90%.

As for `Cc1cc(F)c(-n2cnc(C(C)C)cc2=O)cc1[S+]([O-])CC(F)(F)F` (racemic) [Example 52], in the series on Tetranychus urticae, the “efficacy (spider mites killed)” value came out at 100%.

As for `Cc1cc(F)c(-n2cnc(C(F)(F)F)cc2=O)cc1SCC(F)(F)F` [Example 1, 3-{2-Fluoro-4-methyl-5-[(2,2,2-trifluoroethyl)sulphanyl]phenyl}-6-(trifluoromethyl)pyrimidin-4(3H)-one], the figures for the chromatographic logP in series [1] (setting [2]) and in series [1] (setting [3]) were 3.42 and 3.4, respectively. Further, in the series with Tetranychus urticae, the “efficacy (spider mites killed)” value stood at 100%.

Regarding `Cc1cc(F)c(-n2c(C)nc(C(F)(F)F)cc2=O)cc1SCC(F)(F)F` [Example 8], the “efficacy (spider mites killed)” value with Tetranychus urticae is reported as 100%.

Take `Cc1cc(C)c(-n2cnc(C)c(C)c2=O)cc1SCC(F)(F)F` [Example 13]: the “efficacy (spider mites killed)” value with Tetranychus urticae worked out at 100%.

In the case of `O=c1cc(C(F)(F)F)ncn1-c1cc(SCC(F)(F)F)c(Br)cc1F` [Example 15], in the series on Tetranychus urticae, the “efficacy (spider mites killed)” value is listed as 100%.

In the case of `O=c1cc(C(F)(F)F)ncn1-c1cc(SCC(F)(F)F)c(Cl)cc1F` [Example 16], in the series on Tetranychus urticae, the “efficacy (spider mites killed)” value is 100%.

As to `Cc1cc(=O)n(-c2cc(SCC(F)(F)F)c(C)cc2C)cn1` [Example 20], the “efficacy (spider mites killed)” value in the series on Tetranychus urticae is listed as 100%.

With `Cc1cc(C)c(-n2cnc(C3CC3)cc2=O)cc1SCC(F)(F)F` [Example 23], the “efficacy (spider mites killed)” value in the series on Tetranychus urticae is 100%.

Turning to `Cc1cc(F)c(-n2cnc(C(C)C)cc2=O)cc1SCC(F)(F)F` [Example 31], the “efficacy (spider mites killed)” value in the series on Tetranychus urticae is reported as 100%.

For the compound `Cc1cc(F)c(-n2cnc(C(F)F)cc2=O)cc1SCC(F)(F)F` [Example 32], in the series with Tetranychus urticae, the “efficacy (spider mites killed)” value worked out at 100%.

On to `Cc1cc(C)c(-n2cnc(C(F)(F)C(F)(F)F)cc2=O)cc1SCC(F)(F)F` [Example 36], for which the “efficacy (spider mites killed)” value with Tetranychus urticae came out at 100%.

With `Cc1cc(F)c(-n2cnc(C3CC3)cc2=O)cc1SCC(F)(F)F` [Example 37], in the series with Tetranychus urticae, the “efficacy (spider mites killed)” value was found to be 100%.

With `CCc1cc(=O)n(-c2cc(SCC(F)(F)F)c(C)cc2C)cn1` [Example 39], the “efficacy (spider mites killed)” value with Tetranychus urticae is on record as 100%.

In the case of `CCc1cc(=O)n(-c2ccc(C)c(SCC(F)(F)F)c2)cn1` [Example 43], in the series with Tetranychus urticae, the “efficacy (spider mites killed)” value is reported as 90%.

For the compound `Cc1cc(C)c(-n2cnc(C(C)(F)F)cc2=O)cc1SCC(F)(F)F` [Example 51], the “efficacy (spider mites killed)” value in the series with Tetranychus urticae was determined as 100%.

`O=c1cc(C(F)(F)F)ncn1-c1ccc(Cl)c(SCC(F)(F)F)c1` [Example 54]: the “efficacy (spider mites killed)” value with Tetranychus urticae is 100%.

In the case of `CCc1cc(=O)n(-c2cc(SCC(F)(F)F)c(C)cc2F)cn1` [Example 57], in the series on Tetranychus urticae, the “efficacy (spider mites killed)” value was determined as 100%.

For `Cc1cc(F)c(NC(=O)/C=C(\N)C(F)(F)F)cc1SCC(F)(F)F` [IIa-1, 3-Amino-4,4,4-trifluoro-N-{2-fluoro-4-methyl-5-[(2,2,2-trifluoroethyl)sulphanyl]phenyl}but-2-enamide], the figures for the chromatographic logP in series [1] (setting [2]) and in series [1] (setting [3]) were 3.61 and 3.6, respectively.

`Cc1cc(C)c(SCC(F)(F)F)cc1NC(=O)/C=C(\N)C(F)(F)F` [IIa-2, 3-Amino-N-[2,4-dimethyl-5-(2,2,2-trifluoroethylsulphanyl)phenyl]-4,4,4-trilluorobut-2-enamide]: the chromatographic logP in series [1] (setting [2]) amounted to 3.63; in series [1] (setting [3]), 3.61.

With `NC(=CC(=O)Nc1cc(SCC(F)(F)F)c(Cl)cc1Cl)C(F)(F)F` [IIa-3], in series [1], the “logP (HCOOH)” value is on record as 4.24 and the “logP (neutral)” value amounted to 4.13.

Take `NC(=CC(=O)Nc1cc(SCC(F)(F)F)c(Cl)cc1F)C(F)(F)F` [IIa-4]: in series [1], the “logP (HCOOH)” value was 3.83 and the “logP (neutral)” value was found to be 3.73.

Turning to `NC(=CC(=O)Nc1cc(SCC(F)(F)F)c(Br)cc1F)C(F)(F)F` [IIa-5], in series [1], the “logP (HCOOH)” value was determined as 3.88 and the “logP (neutral)” value amounted to 3.78.

Turning to `Cc1ccc(NC(=O)C=C(N)C(F)(F)F)cc1SCC(F)(F)F` [IIa-6], in series [1], the “logP (HCOOH)” value was 3.58 and the “logP (neutral)” value is 3.49.

For `NC(=CC(=O)Nc1ccc(Cl)c(SCC(F)(F)F)c1)C(F)(F)F` [IIa-7], in series [1], the “logP (HCOOH)” value is given as 3.66 and the “logP (neutral)” value was 3.65.

In the case of `Cc1cc(Cl)c(NC(=O)C=C(N)C(F)(F)F)cc1SCC(F)(F)F` [IIa-8], in series [1], the “logP (HCOOH)” value is 4.05 and the “logP (neutral)” value came out at 3.99.

Consider `Cc1cc(F)c(NC(=O)C=C(N)C(F)F)cc1SCC(F)(F)F` [IIa-9], for which, in series [1], the “logP (HCOOH)” value turned out to be 3.23 and the “logP (neutral)” value came out at 3.21.

For the compound `Cc1cc(C)c(SCC(F)(F)F)cc1NC(=O)C=C(N)C(F)F` [IIa-10], in series [1], the “logP (HCOOH)” value is recorded as 3.24 and the “logP (neutral)” value was 3.15.

Consider `Cc1cc(F)c(NC(=O)C=C(N)C(C)(F)F)cc1SCC(F)(F)F` [IIa-11], for which, in series [1], the “logP (HCOOH)” value is recorded as 3.55 and the “logP (neutral)” value turned out to be 3.49.

Take `Cc1cc(C)c(SCC(F)(F)F)cc1NC(=O)C=C(N)C(C)(F)F` [IIa-12]: in series [1], the “logP (HCOOH)” value is 3.52 and the “logP (neutral)” value turned out to be 3.40.

For the compound `Cc1cc(F)c(NC(=O)/C=C(\O)C(F)(F)F)cc1SCC(F)(F)F` [XXXI-1, 4,4,4-Trifluoro-N-{2-fluoro-4-methyl-5-[(2,2,2-trifluoroethyl)sulphanyl]phenyl}-3-hydroxybut-2-enamide], the chromatographic logP was 2.77 in series [1] (setting [4]) and 1.43 in series [1] (setting [3]).

In the case of `Cc1cc(C)c(SCC(F)(F)F)cc1NC(=O)/C=C(\O)C(F)(F)F` [XXXI-2, N-[2,4-Dimethyl-5-(2,2,2-trifluoroethylsulphanyl)phenyl]-4,4,4-trifluoro-3-hydroxybut-2-enamide], the chromatographic logP in series [1] (setting [4]) is 2.87.

Regarding `O=C(C=C(O)C(F)(F)F)Nc1cc(SCC(F)(F)F)c(Cl)cc1Cl` [XXXI-3], the “logP (HCOOH)” value in series [1] is 3.13.

`O=C(C=C(O)C(F)(F)F)Nc1cc(SCC(F)(F)F)c(Cl)cc1F` [XXXI-4]: in series [1], the “logP (HCOOH)” value came to 2.86 and the “logP (neutral)” value is 1.45.

In the case of `O=C(C=C(O)C(F)(F)F)Nc1cc(SCC(F)(F)F)c(Br)cc1F` [XXXI-5], the “logP (HCOOH)” value in series [1] is 2.93.

Take `Cc1ccc(NC(=O)C=C(O)C(F)(F)F)cc1SCC(F)(F)F` [XXXI-6]: the “logP (HCOOH)” value in series [1] worked out at 2.80.

On to `O=C(C=C(O)C(F)(F)F)Nc1ccc(Cl)c(SCC(F)(F)F)c1` [XXXI-7], for which the “logP (HCOOH)” value in series [1] came to 2.84.

For the compound `Cc1cc(Cl)c(NC(=O)C=C(O)C(F)(F)F)cc1SCC(F)(F)F` [XXXI-8], in series [1], the “logP (HCOOH)” value was found to be 3.01 and the “logP (neutral)” value is 1.44.

For the compound `Cc1cc(F)c(NC(=O)C=C(O)C(F)F)cc1SCC(F)(F)F` [XXXI-9], the “logP (HCOOH)” value in series [1] was 2.47.

For `Cc1cc(C)c(SCC(F)(F)F)cc1NC(=O)C=C(O)C(F)F` [XXXI-10], the “logP (HCOOH)” value in series [1] was determined as 2.53.

`Cc1cc(F)c(NC(=O)C=C(O)C(C)(F)F)cc1SCC(F)(F)F` [XXXI-11]: the “logP (HCOOH)” value in series [1] is 2.72.

In the case of `Cc1cc(C)c(SCC(F)(F)F)cc1NC(=O)C=C(O)C(F)(F)C(F)(F)F` [XXXI-14], in series [1], the “logP (neutral)” value was found to be 1.63.
